Assay results: ChEMBL document CHEMBL1122606, “cis-4-[[[(2-Chloroethyl)nitrosoamino]carbonyl]methylamino] cyclohexanecarboxylic acid, a nitrosourea with latent activity against an experimental solid tumor” (J Med Chem, 1984)

Legend:
[1] = Half life period in phosphate buffer (pH 7.4); format: ADME
Mus musculus = species: Mus musculus; assay: Dose showing lethal effects on 10% of the mice bearing lewis lung tumors.; format: functional

O=NN(CCCl)C(=O)NC1CCC(C(=O)O)CC1 (centres undefined)
half-life [1]: 46 h | LD10 (Mus musculus): 26 mg/kg

CN(C(=O)N(CCCl)N=O)C1CCC(C(=O)O)CC1 (centres undefined)
half-life [1]: 4.5 h | LD10 (Mus musculus): >400 mg/kg
